Experimental findings from patent publication US11524966B1 (Valo Early Discovery, Inc., priority 2017, dated 2022) are described below.

pIC50: −log10 of the molar value.

By pIC50 is commonly meant the negative decadic logarithm of the IC50, by convention in mol/L.

The assay deals with T1, USP28 (His-tagged USP28-FL-mammalian) (Homo sapiens, UniProt Q96RU2).
T1 construct: Expression of USP28 (1-1077)-TEV-6*His (pTT5 vector); made in house; host or cells: Expi293f cells (pTT5 vector)
T1 sequence (Q96RU2 1-1077): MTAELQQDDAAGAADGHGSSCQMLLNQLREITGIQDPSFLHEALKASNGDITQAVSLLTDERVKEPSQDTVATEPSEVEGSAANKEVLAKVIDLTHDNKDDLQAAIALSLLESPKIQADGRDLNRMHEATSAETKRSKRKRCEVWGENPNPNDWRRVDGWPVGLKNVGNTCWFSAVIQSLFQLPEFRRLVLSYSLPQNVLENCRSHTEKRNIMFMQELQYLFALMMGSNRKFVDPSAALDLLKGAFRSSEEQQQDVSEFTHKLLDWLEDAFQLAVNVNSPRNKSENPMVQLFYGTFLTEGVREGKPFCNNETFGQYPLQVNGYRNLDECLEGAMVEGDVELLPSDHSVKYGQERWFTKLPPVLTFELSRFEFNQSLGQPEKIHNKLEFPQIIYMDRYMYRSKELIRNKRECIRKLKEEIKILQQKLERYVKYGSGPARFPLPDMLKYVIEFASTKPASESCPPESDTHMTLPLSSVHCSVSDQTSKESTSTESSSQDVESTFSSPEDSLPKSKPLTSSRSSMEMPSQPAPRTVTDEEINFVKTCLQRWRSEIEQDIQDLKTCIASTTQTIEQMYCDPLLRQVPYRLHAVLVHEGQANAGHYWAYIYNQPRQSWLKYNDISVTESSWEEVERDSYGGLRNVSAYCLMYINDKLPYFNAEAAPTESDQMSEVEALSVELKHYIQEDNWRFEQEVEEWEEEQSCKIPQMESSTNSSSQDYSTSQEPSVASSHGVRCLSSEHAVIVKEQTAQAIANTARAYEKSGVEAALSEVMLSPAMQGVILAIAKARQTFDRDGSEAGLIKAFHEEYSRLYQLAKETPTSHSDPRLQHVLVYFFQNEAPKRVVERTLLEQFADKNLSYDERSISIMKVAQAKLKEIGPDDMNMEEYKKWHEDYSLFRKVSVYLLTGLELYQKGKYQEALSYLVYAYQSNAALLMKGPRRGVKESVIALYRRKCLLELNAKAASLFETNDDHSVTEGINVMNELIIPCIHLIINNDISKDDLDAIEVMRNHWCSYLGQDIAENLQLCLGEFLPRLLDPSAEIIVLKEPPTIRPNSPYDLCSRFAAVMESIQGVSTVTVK
Kind of assay: Ubiquitin-Rhodamine 110 Assay for USP28 Activity, Example A-1(a). It is filed as biochemical. To be noted: Ubiquitin-Rhodamine 110 assay, Example A-1(a); read-out: USP28 A-1(a) IC50 range. The essentials: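 Full-length His-tagged human USP28 (1-1077, Expi293f-expressed), […], with 25 nM Ub-Rh110 (<<Km) in pH 8.0 Tris buffer with BME, BGG, Triton X-100. 10-point dilutions (25 μM-1.3 nM), 45 min at room temperature, citric acid stop, fluorescence 485/535 nm; IC50 by 4-parameter fit.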
Regarding `Cc1cc(C)n2ncc(C(=O)N[C@H]3COc4cc(N5CCNCC5)ccc4C3)c2n1` [Example 463, (R)-5,7-dimethyl-N-(7-(piperazin-1-yl)chroman-3-yl)pyrazolo[1,5-a]pyrimidine-3-carboxamide], the negative-log IC50 (pIC50) is < 5.70.
On to `Cc1ccc2c(N)c(C(=O)N[C@H]3CCc4nc(N5C[C@H](N)[C@H](OC(C)(F)F)C5)ccc4C3)sc2n1` [Example 357, 3-amino-N-[(6S)-2-[(3S,4R)-3-amino-4-(1,1-difluoroethoxy)pyrrolidin-1-yl]-5,6,7,8-tetrahydroquinolin-6-yl]-6-methylthieno[2,3-b]pyridine-2-carboxamide], for which the pIC50 is 6.70 to 7.30.
As for `Cc1ccc2c(N)c(C(=O)N[C@H]3COc4cc(N5CC[C@@H](C(=O)O)C5)ccc4C3)sc2n1` [Example 6-2, (R)-1-((R)-3-(3-amino-6-methylthieno[2,3-b]pyridine-2-carboxamido)chroman-7-yl)pyrrolidine-3-carboxylic acid], the figure is 6.70 to 7.30; as for `Cc1cnc2c(N)c(C(=O)N[C@H]3CCc4nc(N5C[C@@H](N)C6(COC6)C5)ccc4C3)sc2n1` [Example 366, 7-amino-N-[(6S)-2-[(8S)-8-amino-2-oxa-6-azaspiro[3.4]octan-6-yl]-5,6,7,8-tetrahydroquinolin-6-yl]-3-methylthieno[2,3-b]pyrazine-6-carboxamide], 5.70 to 6.70; as for `Cc1ccc2c(N)c(C(=O)N[C@H]3COc4cc(N5CCS(=O)(=O)CC5)ccc4C3)sc2n1` [Example 5-2, (R)-3-amino-N-(7-(1,1-dioxidothiomorpholino)chroman-3-yl)-6-methylthieno[2,3-b]pyridine-2-carboxamide], 7.30 to 9.00.
With `Cc1ccc2c(N)c(C(=O)N[C@H]3CCc4nc(N5C[C@@H](N)[C@@H](OC(C)(F)F)C5)ccc4C3)sc2n1` [Example 358, 3-amino-N-[(6S)-2-[(3R,4S)-3-amino-4-(1,1-difluoroethoxy)pyrrolidin-1-yl]-5,6,7,8-tetrahydroquinolin-6-yl]-6-methylthieno[2,3-b]pyridine-2-carboxamide], the pIC50 was 5.70 to 6.70.
Then `Cc1cnc2c(N)c(C(=O)N[C@@H]3CCc4cc(N5CCCNCC5)ccc4C3)sc2n1` [Example 452, (R)-N-(6-(1,4-diazepan-1-yl)-1,2,3,4-tetrahydronaphthalen-2-yl)-7-amino-3-methylthieno[2,3-b]pyrazine-6-carboxamide], with 5.70 to 6.70; and `O=C(N[C@H]1COc2cc(N3CCNCC3)ccc2C1)c1cnn2cc(Cl)ccc12` [Example 462, (R)-6-chloro-N-(7-(piperazin-1-yl)chroman-3-yl)pyrazolo[1,5-a]pyridine-3-carboxamide], with < 5.70.
As for `CO[C@H]1CN(c2cc3c(c(F)c2F)C[C@@H](NC(=O)c2sc4nc(C)ccc4c2N)CO3)C[C@@H]1N` [Example 416, 3-amino-N-[(3R)-7-[(3S,4S)-3-amino-4-methoxpyrrolidin-1-yl]-5,6-difluoro-3,4-dihydro-2H-1-benzopyran-3-yl]-6-methylthieno[2,3-b]pyridine-2-carboxamide], the pIC50 is 7.30 to 9.00.
Then `COc1ccn2ncc(C(=O)N[C@H]3COc4cc(N5CCNCC5)ccc4C3)c2c1` [Example 461, (R)-5-methoxy-N-(7-(piperazin-1-yl)chroman-3-yl)pyrazolo[1,5-a]pyridine-3-carboxamide], with < 5.70; and `Cc1ccc2c(N)c(C(=O)N[C@H]3COc4cc(N5CC[C@H](C(=O)O)C5)ccc4C3)sc2n1` [Example 6-3, (S)-1-((R)-3-(3-amino-6-methylthieno[2,3-b]pyridine-2-carboxamido)chroman-7-yl)pyrrolidine-3-carboxylic acid], with 6.70 to 7.30.
Then `O=C(N[C@H]1COc2cc(N3CCNCC3)ccc2C1)c1ccc(NCc2ccc3c(c2)CCO3)nc1` [Example 472, (R)-6-(((2,3-dihydrobenzofuran-5-yl)methyl)amino)-N-(7-(piperazin-1-yl)chroman-3-yl)nicotinamide], with 5.70 to 6.70; and `Cc1ccc2c(N)c(C(=O)N[C@H]3COc4cc(N5CC(O)(C(F)(F)F)C5)ccc4C3)sc2n1` [Example 5-3, (R)-3-amino-N-(7-(3-hydroxy-3-(trifluoromethyl)azetidin-1-yl)chroman-3-yl)-6-methylthieno[2,3-b]pyridine-2-carboxamide], with 7.30 to 9.00; and `Cc1ccc2c(N)c(C(=O)N[C@@H]3COc4c(cc(F)c(N5CCNCC5)c4F)C3)sc2n1` (single isomer, unassigned) [Example 3-18], with 5.70 to 6.70.
As for `Cc1cccc2c(C(=O)N[C@H]3COc4cc(N5CCNCC5)ccc4C3)cnn12` [Example 458, (R)-7-methyl-N-(7-(piperazin-1-yl)chroman-3-yl)pyrazolo[1,5-a]pyridine-3-carboxamide], the figure is 7.30 to 9.00; as for `O=C(N[C@H]1COc2cc(N3CCNCC3)ccc2C1)c1cn2nc(Cl)ccc2n1` [Example 464, (R)-6-chloro-N-(7-(piperazin-1-yl)chroman-3-yl)imidazo[1,2-b]pyridazine-2-carboxamide], < 5.70.
Take `Cc1cnc2c(N)c(C(=O)N[C@@H]3CCc4cc(N5CC6CNCC(C5)O6)ccc4C3)sc2n1` [Example 450, N-((2R)-6-(9-oxa-3,7-diazabicyclo[3.3.1]nonan-3-yl)-1,2,3,4-tetrahydronaphthalen-2-yl)-7-amino-3-methylthieno[2,3-b]pyrazine-6-carboxamide]: the pIC50 was 5.70 to 6.70.
Then `CO[C@@H]1CN(c2cc3c(c(F)c2F)C[C@@H](NC(=O)c2sc4nc(C)ccc4c2N)CO3)C[C@H]1N` [Example 415, 3-amino-N-[(3R)-7-[(3R,4R)-3-amino-4-methoxypyrrolidin-1-yl]-5,6-difluoro-3,4-dihydro-2H-1-benzopyran-3-yl]-6-methylthieno[2,3-b]pyridine-2-carboxamide], with 7.30 to 9.00; and `Cc1ccc2c(N)c(C(=O)N[C@H]3CCc4nc(N5C[C@@H](N)[C@]6(CCCO6)C5)ccc4C3)sc2n1` [Example 391, 3-amino-N-[(6S)-2-[(5S,9R)-9-amino-1-oxa-7-azaspiro[4.4]nonan-7-yl]-5,6,7,8-tetrahydroquinolin-6-yl]-6-methylthieno[2,3-b]pyridine-2-carboxamide], with 6.70 to 7.30; and `Cc1ccc2c(N)c(C(=O)N[C@H]3COc4cc(N5CC[C@H](N)C5)ccc4C3)sc2n1` [Example 369, 3-amino-N-[(3R)-7-[(3S)-3-aminopyrrolidin-1-yl]-3,4-dihydro-2H-1-benzopyran-3-yl]-6-methylthieno[2,3-b]pyridine-2-carboxamide], with 7.30 to 9.00.
As for `O=C(N[C@H]1COc2cc(N3CC4CCC(C3)N4)ccc2C1)c1cnc2c(c1)[C@H]1C[C@H]1CN2` [Example 3-16, (1aR,7bS)-N-((3R)-7-(3,8-diazabicyclo[3.2.1]octan-3-yl)chroman-3-yl)-1a,2,3,7b-tetrahydro-1H-cyclopropa[c][1,8]naphthyridine-6-carboxamide], the figure is 5.70 to 6.70; as for `Cc1ccc2c(N)c(C(=O)N[C@H]3CCc4nc(N5C[C@H](N)[C@H](C(F)F)C5)ccc4C3)sc2n1` [Example 345, 3-amino-N-[(6S)-2-[(3R,4R)-3-amino-4-(difluoromethyl)pyrrolidin-1-yl]-5,6,7,8-tetrahydroquinolin-6-yl]-6-methylthieno[2,3-b]pyridine-2-carboxamide], 6.70 to 7.30; as for `Cc1ccc2c(N)c(C(=O)N[C@H]3COc4cc(N5CC[C@@]6(CCCNC6)C5)ccc4C3)sc2n1` [Example 3-14, N-((R)-7-((R)-2,7-diazaspiro[4.5]decan-2-yl)chroman-3-yl)-3-amino-6-methylthieno[2,3-b]pyridine-2-carboxamide], 7.30 to 9.00.
Then `Cc1ccc2c(N)c(C(=O)N[C@H]3CCc4nc(N5C[C@H](N)[C@@]6(CCCO6)C5)ccc4C3)sc2n1` [Example 393, 3-amino-N-[(6S)-2-[(5R,9S)-9-amino-1-oxa-7-azaspiro[4.4]nonan-7-yl]-5,6,7,8-tetrahydroquinolin-6-yl]-6-methylthieno[2,3-b]pyridine-2-carboxamide], with 6.70 to 7.30.
